Test system: 354836-022-R-J1-PDC multicell spheroid viability
Experiment: Anticancer human tumor 354836-022-R-J1-PDC patient-derived head and neck squamous cell carcinoma cell line growth inhibition [PI3K]
Settings: for IC50: curve of first compound; for viability, T/C: stronger effect = lower value
How it was run: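 High-throughput combination screen: PI3K inhibitors crossed with targeted small molecules on complex spheroids of tumor cells, HUVEC and MSCs at 37 degrees C, 5% CO2. Top concentration was at or near clinical Cmax (otherwise 10 microM), with half-log decrements.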

[1] = second compound 0.0316 µM, first compound 0.0316 µM
[2] = second compound 0.0316 µM, first compound 0.1 µM
[3] = second compound 0.0316 µM, first compound 0.316 µM
[4] = second compound 0.0316 µM, first compound 1 µM
[5] = second compound 0.0316 µM, first compound 3.16 µM
[6] = second compound 0.0316 µM, first compound 10 µM
[7] = second compound 0.1 µM, first compound 0.0316 µM
[8] = second compound 0.1 µM, first compound 0.1 µM
[9] = second compound 0.1 µM, first compound 0.316 µM
[10] = second compound 0.1 µM, first compound 1 µM
[11] = second compound 0.1 µM, first compound 3.16 µM
[12] = second compound 0.1 µM, first compound 10 µM
[13] = second compound 0.316 µM, first compound 0.0316 µM
[14] = second compound 0.316 µM, first compound 0.1 µM
[15] = second compound 0.316 µM, first compound 0.316 µM
[16] = second compound 0.316 µM, first compound 1 µM
[17] = second compound 0.316 µM, first compound 3.16 µM
[18] = second compound 0.316 µM, first compound 10 µM
[19] = second compound 1 µM, first compound 0.0316 µM
[20] = second compound 1 µM, first compound 0.1 µM
[21] = second compound 1 µM, first compound 0.316 µM
[22] = second compound 1 µM, first compound 1 µM
[23] = second compound 1 µM, first compound 3.16 µM
[24] = second compound 1 µM, first compound 10 µM
[25] = second compound 3.16 µM, first compound 0.0316 µM
[26] = second compound 3.16 µM, first compound 0.1 µM
[27] = second compound 3.16 µM, first compound 0.316 µM
[28] = second compound 3.16 µM, first compound 1 µM
[29] = second compound 3.16 µM, first compound 3.16 µM
[30] = second compound 3.16 µM, first compound 10 µM
[31] = second compound 10 µM, first compound 0.0316 µM
[32] = second compound 10 µM, first compound 0.1 µM
[33] = second compound 10 µM, first compound 0.316 µM
[34] = second compound 10 µM, first compound 1 µM
[35] = second compound 10 µM, first compound 3.16 µM
[36] = second compound 10 µM, first compound 10 µM
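Further: spheroids exposed to agents for seven days before the viability read.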

CC(C)NCC(C(=O)N1CCN(c2ncnc3c2C(C)CC3O)CC1)c1ccc(Cl)cc1 (centres undefined) + CC(Nc1ncnc2nc[nH]c12)c1cc2cccc(Cl)c2c(=O)n1-c1ccccc1
IC50 (second compound 0.0316 µM): 317 nM
IC50 (second compound 0.1 µM): 490 nM
IC50 (second compound 0.316 µM): 340 nM
IC50 (second compound 1 µM): 491 nM
IC50 (second compound 3.16 µM): 383 nM
IC50 (second compound 10 µM): 454 nM
viability, T/C [1]: 87.3%
viability, T/C [2]: 75.8%
viability, T/C [3]: 47.8%
viability, T/C [4]: 27.4%
viability, T/C [5]: 10.1%
viability, T/C [6]: 3.75%
viability, T/C [7]: 90.7%
viability, T/C [8]: 79.7%
viability, T/C [9]: 52.3%
viability, T/C [10]: 43.7%
viability, T/C [11]: 12.9%
viability, T/C [12]: 3.85%
viability, T/C [13]: 100%
viability, T/C [14]: 77.7%
viability, T/C [15]: 50.1%
viability, T/C [16]: 32.2%
viability, T/C [17]: 7.64%
viability, T/C [18]: 5.53%
viability, T/C [19]: 95.2%
viability, T/C [20]: 84.8%
viability, T/C [21]: 64.3%
viability, T/C [22]: 27.3%
viability, T/C [23]: 13.8%
viability, T/C [24]: 3.16%
viability, T/C [25]: 102%
viability, T/C [26]: 82.3%
viability, T/C [27]: 52.5%
viability, T/C [28]: 30.8%
viability, T/C [29]: 12.4%
viability, T/C [30]: 4.48%
viability, T/C [31]: 87.5%
viability, T/C [32]: 76.7%
viability, T/C [33]: 61.2%
viability, T/C [34]: 28.4%
viability, T/C [35]: 11%
viability, T/C [36]: 3.05%

CC(Cn1ccc(-c2ccc(C#N)c(Cl)c2)n1)NC(=O)c1cc(C(C)O)[nH]n1 (centres undefined) + Cc1nc(NC(=O)N2CCCC2C(N)=O)sc1-c1ccnc(C(C)(C)C(F)(F)F)c1
IC50 (second compound 0.0316 µM): > 10000 nM
IC50 (second compound 0.1 µM): > 10000 nM
IC50 (second compound 0.316 µM): > 10000 nM
IC50 (second compound 1 µM): > 10000 nM
IC50 (second compound 3.16 µM): > 10000 nM
IC50 (second compound 10 µM): < 31.6 nM
viability, T/C [1]: 109%
viability, T/C [2]: 88.7%
viability, T/C [3]: 96%
viability, T/C [4]: 83.6%
viability, T/C [5]: 97.4%
viability, T/C [6]: 71.6%
viability, T/C [7]: 106%
viability, T/C [8]: 93%
viability, T/C [9]: 97.8%
viability, T/C [10]: 85.6%
viability, T/C [11]: 91.1%
viability, T/C [12]: 82%
viability, T/C [13]: 88.8%
viability, T/C [14]: 91.8%
viability, T/C [15]: 81%
viability, T/C [16]: 102%
viability, T/C [17]: 81.2%
viability, T/C [18]: 67.6%
viability, T/C [19]: 74.2%
viability, T/C [20]: 66%
viability, T/C [21]: 83%
viability, T/C [22]: 82.3%
viability, T/C [23]: 83.3%
viability, T/C [24]: 61.9%
viability, T/C [25]: 62.4%
viability, T/C [26]: 61.1%
viability, T/C [27]: 60.5%
viability, T/C [28]: 71.8%
viability, T/C [29]: 71.3%
viability, T/C [30]: 57%
viability, T/C [31]: 43.6%
viability, T/C [32]: 33.7%
viability, T/C [33]: 39.9%
viability, T/C [34]: 44.4%
viability, T/C [35]: 45.5%
viability, T/C [36]: 37.1%
